≈ marks a conversion by molar mass, not a printed value. Structures can show the parent of a compound that is named as a salt. Where two headings read alike, the source gives them in different places.
Tests used:
[1] = system: S. typhimurium GC 4198 SHV-1 CTX-M-5; assay: MIC microbroth dilution; β-lactamase class A, A (ESBL); type: cell-based
Procedure: (§1) The in vitro activities of the antibiotics were determined by the microbroth dilution method as recommended by the National Committee for Clinical Laboratory Standards (NCCLS). (NCCLS. 2000. Methods for Dilution Antimicrobial Susceptibility Tests for Bacteria That Grow Aerobically; Approved Standards: M7-A5, vol. 19. National Committee for Clinical Laboratory Standards, Villanova, Pa.). Mueller-Hinton II broth (MHBII)(BBL Cockeysville, Md.), was used for the testing procedure. […]. The plates were incubated for 18-22 hours at 35° C. in ambient air.

[2] = system: A. baumannii GC 7692 TEM-1, AmpC; assay: MIC microbroth dilution; β-lactamase class A, C; type: cell-based
Procedure: as §1

[3] = system: E. coli GC 2295 TEM-1 + AmpC; assay: MIC microbroth dilution; β-lactamase class A, C; type: cell-based
Procedure: as §1

[4] = system: K. pneumoniae GC 7636 TEM-1 KPC-2 SHV-12; assay: MIC microbroth dilution; β-lactamase class A, A (Cb'ase), A (ESBL); type: cell-based
Procedure: as §1

[5] = system: A. baumannii GC 7685 TEM-1; assay: MIC microbroth dilution; β-lactamase class A; type: cell-based
Procedure: as §1

E. coli ATCC 35218 TEM-1 = assay: MIC microbroth dilution; β-lactamase class A; type: cell-based
Procedure: as §1

E. coli GC 2805 (CcrA) = assay: MIC microbroth dilution; β-lactamase class B; type: cell-based
Procedure: as §1

[6] = system: E. coli GC 2883 (OXA-10/PSE-2); assay: MIC microbroth dilution; β-lactamase class D; type: cell-based
Procedure: as §1

[7] = system: K. oxytoca GC 7627 TEM-1 K1 KPC-2; assay: MIC microbroth dilution; β-lactamase class A, A (Cb'ase); type: cell-based
Procedure: as §1

[8] = system: C. freundii PT 1499 Stably derepressed AmpC; assay: MIC microbroth dilution; β-lactamase class C; type: cell-based
Method in brief: (§2)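 Broth microdilution per NCCLS M7-A5 in Mueller-Hinton II broth; plates held 18-22 hours at 35° C. in ambient air before MICs were read.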

[9] = system: P. aeruginosa GC 4161 Stably derepressed AmpC; assay: MIC microbroth dilution; β-lactamase class C; type: cell-based
Method in brief: as §2

[10] = system: S. marcescens GC 4132 Stably derepressed AmpC; assay: MIC microbroth dilution; β-lactamase class C; type: cell-based
Method in brief: as §2

[11] = system: C. freundii GC 4187 Stably derepressed AmpC; assay: MIC microbroth dilution; β-lactamase class C; type: cell-based
Method in brief: as §2

class C enzyme AmpC = class C enzyme AmpC (Enterobacter cloacae, UniProt P05364); assay: β-Lactamase inhibition IC50 (nitrocefin, spectrophotometric); type: biochemical
Sequence of class C enzyme AmpC (P05364 21-381): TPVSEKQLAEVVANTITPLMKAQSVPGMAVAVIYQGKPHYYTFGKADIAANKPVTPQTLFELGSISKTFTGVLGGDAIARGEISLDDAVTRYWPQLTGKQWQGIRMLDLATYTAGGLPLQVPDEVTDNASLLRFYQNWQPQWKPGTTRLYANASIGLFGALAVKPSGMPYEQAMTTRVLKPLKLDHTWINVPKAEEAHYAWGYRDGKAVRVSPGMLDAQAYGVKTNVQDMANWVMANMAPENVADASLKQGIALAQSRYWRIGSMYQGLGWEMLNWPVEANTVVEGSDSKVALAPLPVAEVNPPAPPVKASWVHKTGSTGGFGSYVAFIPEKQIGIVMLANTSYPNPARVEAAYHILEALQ
Procedure: (§3) β-Lactamase inhibitory activity of the penem inhibitors was determined spectrophotometrically as described by Bush et al., [Bush, K., Macalintal, C., Rasmussen, B. A., Lee, V. and Yang, Y. Antimicrobial Agents and Chemotherapy 1993, 37, 851]. Homogeneously purified class A β-lactamases TEM-1 from E. coli and Imi-1 from Enterobacter cloacae, class B enzyme CcrA from Bacteroides fragilis and class C enzyme AmpC from Enterobacter cloacae were employed in the assay. The enzyme concentrations for TEM-1, Imi-1, CcrA and AmpC were 4.3, 7.1, 1.2 and 2.1 nM, respectively. A wide range of inhibitor concentrations were prepared in 50 mM PO4, pH 7.0 to include the possible IC50 values. The substrate used to initiate the enzyme reaction was nitrocefin at 50 μg/ml in the same buffer as the inhibitor. Initially the enzyme and inhibitor (20 μl each) were preincubated for 10 minutes at 25° C. prior to the addition of 160 μl volume of nitrocefin. Initial rates of hydrolysis were monitored for 5 minutes at 495 nm using a Molecular Devices Spectra Max 250 with kinetic protocol of SoftMax Program. Readings from the Spectra Max 250 were exported and transferred to Microsoft Excel. The percent of inhibition of each inhibitor concentration was calculated based on the control enzyme activity. The inhibitor concentration that caused a 50% reduction in the enzymatic activity (IC50) was determined graphically.

[12] = target: class A β-lactamase Imi-1 (Enterobacter cloacae, UniProt Q46991); assay: as above; type: biochemical
Sequence of class A β-lactamase Imi-1 (Q46991 entry or part of it): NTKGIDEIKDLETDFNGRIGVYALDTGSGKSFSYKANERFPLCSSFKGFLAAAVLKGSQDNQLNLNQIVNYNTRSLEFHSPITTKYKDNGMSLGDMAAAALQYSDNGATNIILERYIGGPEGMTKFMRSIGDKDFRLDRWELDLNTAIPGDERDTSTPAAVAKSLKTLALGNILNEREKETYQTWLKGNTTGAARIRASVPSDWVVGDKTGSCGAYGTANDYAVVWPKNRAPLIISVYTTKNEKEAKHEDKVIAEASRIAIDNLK
Procedure: as §3

class B enzyme CcrA = class B enzyme CcrA (Bacteroides fragilis, UniProt P25910); assay: as above; type: biochemical; conditions: enzyme 1.2 nM, 10 min preincubation at 25° C., read-out: IC50 Class B Ccr
Sequence of class B enzyme CcrA (P25910 19-249): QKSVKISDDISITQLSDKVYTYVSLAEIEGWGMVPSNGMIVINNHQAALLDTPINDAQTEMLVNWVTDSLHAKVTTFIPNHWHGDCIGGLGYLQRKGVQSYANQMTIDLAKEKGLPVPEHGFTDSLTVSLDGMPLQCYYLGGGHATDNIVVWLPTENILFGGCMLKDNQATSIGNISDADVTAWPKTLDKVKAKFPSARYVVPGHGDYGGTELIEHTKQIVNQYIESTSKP
Procedure: as §3

[13] = system: E. cloacae GC 7055 TEM-1, SHV-12 Amp C inducable; type: cell-based; conditions: Cefepime + 4 ug/ml Compound 1
Procedure: (§4) The in vitro activities of the antibiotics were determined by the microbroth dilution method as recommended by the National Committee for Clinical Laboratory Standards (NCCLS). (NCCLS. 2000. Methods for Dilution Antimicrobial Susceptibility Tests for Bacteria That Grow Aerobically; Approved Standards: M7-A5, vol. 19. National Committee for Clinical Laboratory Standards, Villanova, Pa.). Mueller-Hinton II broth (MHBII)(BBL Cockeysville, Md.), was used for the testing procedure. […] The plates were incubated for 18-22 hours at 35° C. in ambient air.

[14] = system: E. cloacae PT 197 Stably derepressed AmpC; type: cell-based; conditions: Cefepime + 4 ug/ml Compound 1
Procedure: as §4

[15] = system: E. cloacae GC 1713 AmpC-constitutive; type: cell-based; conditions: Cefepime + 4 ug/ml Compound 1
Procedure: as §4

[16] = system: E. coli GC 2021 (TEM-10 + pl 6.3); assay: MIC microbroth dilution; β-lactamase class A (ESBL); type: cell-based; conditions: Cefepime + 4 ug/ml Compound 1
Method in brief: as §2

E. coli GC 2905 (P99) = assay: MIC microbroth dilution; β-lactamase class C; type: cell-based; conditions: Cefepime + 4 ug/ml Compound 1
Method in brief: as §2

[17] = Cefepime alone, control of Compound 2 test
[18] = Citrobacter freundii, Cefepime alone, control of Compound 1 test

How did the MIC ([1]; S. typhimurium GC 4198, Cefepime alone, control of Compound 2 test) turn out when `CO/N=C(\C(=O)N[C@@H]1C(=O)N2C(C(=O)[O-])=C(C[N+]3(C)CCCC3)CS[C@H]12)c1csc(N)n1` [Cefepime, reference compound] was run?
The MIC was >16 µg/mL.

And the MIC ([1]; Salmonella enterica, TYPHIMURIUM)?
Its MIC is > 16 µg/mL.

What about the MIC ([2]; A. baumannii GC 7692, Cefepime alone, control of Compound 2 test) of the same molecule?
The MIC was >16 µg/mL.

And the MIC ([2]; Acinetobacter baumannii)?
Its MIC is > 16 µg/mL.

And the MIC ([3]; E. coli GC 2295, Cefepime alone, control of Compound 2 test)?
The MIC was 0.50 µg/mL (≈ 1.04 µM).

What about the MIC ([3]; Escherichia coli) of the same molecule?
The MIC was 0.5 µg/mL (≈ 1.04 µM).

And the MIC ([4]; K. pneumoniae GC 7636, Cefepime alone, control of Compound 2 test)?
The MIC was >16 µg/mL.

What about the MIC ([4]; Klebsiella pneumoniae) of the same molecule?
The MIC was > 16 µg/mL.

And the MIC ([5]; A. baumannii GC 7685, Cefepime alone, control of Compound 2 test)?
The MIC was >16 µg/mL.

What about the MIC ([5]; Acinetobacter baumannii, GC7685TEM1) of the same molecule?
The MIC was > 16 µg/mL.

What about the MIC (E. coli ATCC 35218 TEM-1; E. coli ATCC 35218, Cefepime alone, control of Compound 2 test) of the same molecule?
The MIC was 0.03 µg/mL (≈ 0.0624 µM).

What about the MIC (E. coli ATCC 35218 TEM-1; Escherichia coli, ATCC35218) of the same molecule?
Its MIC is 0.03 µg/mL (≈ 0.0624 µM).

And the MIC (E. coli GC 2805 (CcrA); E. coli GC 2805, Cefepime alone, control of Compound 2 test)?
Its MIC is >16 µg/mL.

What about the MIC (E. coli GC 2805 (CcrA); Escherichia coli) of the same molecule?
The MIC was > 16 µg/mL.

What about the MIC [6, 17] of the same molecule?
The MIC was 0.06 µg/mL (≈ 0.125 µM).

And the MIC ([7]; K. oxytoca GC 7627, Cefepime alone, control of Compound 2 test)?
The MIC was >16 µg/mL.

And the MIC ([7]; Klebsiella oxytoca)?
Its MIC is > 16 µg/mL.

And the MIC [8, 18]?
Its MIC is 4 µg/mL (≈ 8.32 µM).

And the MIC ([8]; Citrobacter freundii, Cefepime alone, control of Compound 2 test)?
The MIC was 2 µg/mL (≈ 4.16 µM).

What about the MIC ([9]; P. aeruginosa GC 4161, Cefepime alone, control of Compound 2 test) of the same molecule?
Its MIC is >16 µg/mL.

And the MIC ([9]; Pseudomonas aeruginosa)?
Its MIC is > 16 µg/mL.

What about the MIC [10, 17] of the same molecule?
Its MIC is 0.50 µg/mL (≈ 1.04 µM).

And the MIC [11, 18]?
The MIC was 2 µg/mL (≈ 4.16 µM).

How did the MIC ([1]; S. typhimurium GC 4198, Cefepime + 4 ug/ml Compound 1) turn out when `O=C([O-])C1=CS[C@@H]2/C(=C\c3cn4c(n3)CCC4)C(=O)N12.[Na+]` [Compound 1, (5R), (6Z)-6-(6,7-Dihydro-5H-pyrrolo[1,2-a]imidazol-2-ylmethylene)-7-oxo-4-thia-1-aza-bicyclo[3.2.0]hept-2-ene-2-carboxylic Acid, Sodium Salt] was run?
Its MIC is 0.50 µg/mL.

What about the IC50 (class C enzyme AmpC; enzyme 2.1 nM, 10 min preincubation at 25° C., nitrocefin, read-out: IC50 Class C AmpC) of the same molecule?
Its IC50 is 4.8 nM.

And the IC50 ([12]; enzyme 7.1 nM, 10 min preincubation at 25° C., nitrocefin, read-out: IC50 Class A Imi)?
Its IC50 is 7.8 nM.

And the IC50 (class B enzyme CcrA)?
Its IC50 is 66 nM.

And the MIC ([2]; A. baumannii GC 7692, Cefepime + 4 ug/ml Compound 1)?
Its MIC is >16 µg/mL.

And the MIC ([3]; E. coli GC 2295, Cefepime + 4 ug/ml Compound 1)?
The MIC was 0.12 µg/mL.

What about the MIC ([4]; K. pneumoniae GC 7636, Cefepime + 4 ug/ml Compound 1) of the same molecule?
Its MIC is 16 µg/mL.

And the MIC ([5]; A. baumannii GC 7685, Cefepime + 4 ug/ml Compound 1)?
Its MIC is 16 µg/mL.

And the MIC (E. coli ATCC 35218 TEM-1; E. coli ATCC 35218, Cefepime + 4 ug/ml Compound 1)?
Its MIC is 0.03 µg/mL.

And the MIC [13]?
The MIC was 0.06 µg/mL.

What about the MIC [14] of the same molecule?
The MIC was 0.50 µg/mL.

And the MIC [15]?
Its MIC is 0.12 µg/mL.

And the MIC (E. coli GC 2805 (CcrA); E. coli GC 2805, Cefepime + 4 ug/ml Compound 1)?
The MIC was >16 µg/mL.

What about the MIC ([6]; Cefepime + 4 ug/ml Compound 1) of the same molecule?
Its MIC is 0.06 µg/mL.

And the MIC [16]?
The MIC was 0.12 µg/mL.

What about the MIC ([7]; K. oxytoca GC 7627, Cefepime + 4 ug/ml Compound 1) of the same molecule?
The MIC was 2 µg/mL.

And the MIC ([8]; Cefepime + 4 ug/ml Compound 1)?
Its MIC is 0.03 µg/mL.

What about the MIC ([9]; P. aeruginosa GC 4161, Cefepime + 4 ug/ml Compound 1) of the same molecule?
Its MIC is 16 µg/mL.

What about the MIC (E. coli GC 2905 (P99)) of the same molecule?
Its MIC is 0.06 µg/mL.

And the MIC ([10]; Cefepime + 4 ug/ml Compound 1)?
The MIC was 0.12 µg/mL.

What about the MIC ([11]; Cefepime + 4 ug/ml Compound 1) of the same molecule?
Its MIC is 0.12 µg/mL.

Which results are given for `O=C(O)C1=CS[C@@H]2/C(=C\c3cn4c(n3)COCC4)C(=O)N12` [Compound 2, (5R), (6Z)-6-(5,6-Dihydro-8H-imidazo[2.1-c][1,4]oxazin-2-ylmethylene)-7-oxo-4-thia-1-azabicyclo[3.2.0]hept-2-ene-2-carboxylic Acid, Sodium Salt]?
IC50 (class C enzyme AmpC): 2.2 nM; IC50 [12]: 20 nM; IC50 (class B enzyme CcrA): 230 nM

Source: patent publication US20070129344A1, “Bicyclic 6-alkylidene-penem beta-lactamase inhibitors and beta-lactam antibiotic combination: a broad spectrum antibiotic” (priority 2005, published 2007)
